# What was measured:
# [1] = tested on: adult Xenopsylla cheopis fleas; test: Treated-vial biocidal screening with 2% acetone solutions (Example 2), adult fleas, residual; format: in vivo; conditions: treated vials sat 5 wk; arthropods added for the final 24 h
# Procedure: Samples of the compounds listed below were obtained as described in Example 1, and screened for biocidal activities against nymphal Ixodes scapularis. In this example, 2% acetone solutions (wt/vol) of the compounds were applied to inner surfaces of 2-dram friction cap vials. Vials and caps were treated then allowed to dry for a minimum of 4 hours before placing 10 nymphs in each container. These same vials were used to challenge additional nymphs and adult I. scapularis ticks and adult Xenopsylla cheopis fleas through five weeks to observe any possible residual activity.
# Numbers in parentheses refer to length of treatment in terms of hours (h) or weeks (wk). Data is presented in terms of number killed/number tested. For test periods longer than 24 hours, the treated vials were allowed to sit for the stated period after drying (72 h, 4 wk, or 5 wk) and each group of arthropods was added to the vials for the final 24 h of the test period.
# [2] = tested on: Ixodes scapularis nymphal ticks; test: Tick repellency bioassay; format: in vivo; conditions: listed as Nootkatone (Compound 7)
# [3] = tested on: X. cheopis adults; test: Flea bioassay, treated 2-dram vials, probit analysis; format: in vivo, Xenopsylla cheopis; conditions: 24 h exposure
# [4] = tested on: Xenopsylla cheopis adults; test: Residual activity, aged treated vials, fleas; format: in vivo
# Procedure: Briefly, groups of 10 nymphal I. scapularis and X. cheopis fleas were used in all tests (more than a total of 5,240 nymphs and 4,860 fleas were exposed to the compounds). The inner surface of 2-dram friction cap vials were treated with the compound/acetone solution, or acetone only as a control, and left to air-dry overnight (see also, Panella et al., J. Med. Entomol., 42(3):352-358, 2005. Three to 4 holes were made in the plastic cap to allow for air exchange. Nymphal ticks and adult fleas were then placed directly into the vials using forceps. Vials containing ticks or fleas were placed in desiccators for 24 h at 21° C. and 90% RH. Morbidity and mortality was recorded at 1, 2, 4, 8, and 24 h after initial exposure.
# [5] = 1 h after compound applied to applicator
# [6] = 4 h after compound applied to applicator
smiles,measurement,setting,value
"C=C(C)[C@@H]1CCC2=CC(=O)C[C@@H](C)[C@]2(C)C1 [Compound 7, Nootkatone]","X. cheopis adults (5 wk), number killed/number tested",[1],5/5
same,Slope (±SEM),[2]; 1 h,1.288 (±0.275)
same,RD50,[2]; [5],0.186 % (wt:vol)
same,RD95,[2]; [5],3.514 % (wt:vol)
same,Slope (±SEM),[2]; 4 h,1.291 (±0.277)
same,RD50,[2]; [6],0.177 % (wt:vol)
same,RD95,[2]; [6],3.319 % (wt:vol)
same,LC90,[3]; NE = not effective at concentrations tested,"0.019 percent concentration, wt:vol"
same,Slope,[3]; probit,3.527
same,"Slope, residual activity",[4]; 1 week after treatment,2.546
same,"LC90, residual activity","[4]; 1 week after treatment, NE = not effective","0.05 percent concentration, wt:vol"
same,"Slope, residual activity",[4]; 2 weeks after treatment,2.033
same,"LC50, residual activity",[4]; 4 weeks after treatment,"0.031 percent concentration, wt:vol"

# Reference: patent publication US7230033B2, “Pest control compositions and methods for their use” (United States of America as represented by the Secretary of …, priority 2000, dated 2007)
